The values below are quoted from earlier work in publication PMC11988817, “Prediction and Prioritisation of Novel Anthelmintic Candidates from Public Databases Using Deep Learning and Available Bioactivity Data Sets” (International Journal of Molecular Sciences, 2025).

The series relates to Haemonchus contortus. The following applies: cited from earlier work.

Like-named read-outs stand apart in the source and are kept apart here.

On to `COc1ccc(-c2cnc3c(n2)CCCC3)cc1C#N` [APDB C798], for which, for the setting “tetrahydroquinoxalines”, the “antiparasitic activity (in words)” value was “antiparasitic activity was observed”.

As for `CC(C)Oc1cccc(-c2cnc3c(n2)CCCC3)c1` [APDB C802], the “antiparasitic activity (in words)” value (tetrahydroquinoxalines) was “antiparasitic activity was observed”.

On to `CC(C#N)(COc1cc(C#N)ccc1C(F)(F)F)NC(=O)c1ccc(OC(F)(F)F)cc1` (stereo not drawn) [APDB C823], for which the “antiparasitic activity (in words)” value is given as “possess antiparasitic activity”.
